Measured values from US20120021979A1 (Vanderbilt University, priority 2010, published 2012).

Assays:
GLP-1 receptor = target: T1, GLP-1 receptor (Rattus norvegicus, UniProt P32301); assay: locomotor activity with or without AMPH; format: in vivo
T1 construct: from tissue; host or cells: whole animal (in vivo, i.p. dosing)
T1 sequence (P32301 22-463): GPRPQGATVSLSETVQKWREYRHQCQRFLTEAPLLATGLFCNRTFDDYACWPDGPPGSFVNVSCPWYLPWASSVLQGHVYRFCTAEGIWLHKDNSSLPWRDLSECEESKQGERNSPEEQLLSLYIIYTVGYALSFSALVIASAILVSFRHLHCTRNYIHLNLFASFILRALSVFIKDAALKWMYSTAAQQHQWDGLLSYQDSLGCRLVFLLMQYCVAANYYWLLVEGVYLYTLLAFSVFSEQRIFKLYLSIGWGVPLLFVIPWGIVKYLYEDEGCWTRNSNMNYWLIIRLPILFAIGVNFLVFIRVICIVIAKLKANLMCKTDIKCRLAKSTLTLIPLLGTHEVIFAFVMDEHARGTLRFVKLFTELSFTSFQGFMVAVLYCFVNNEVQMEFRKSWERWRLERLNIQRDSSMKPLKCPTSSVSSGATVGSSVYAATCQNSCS

Na+/K+ ATPase = assay: slice based biotinylation, Na+/K+ ATPase surface expression in striatal slices; format: cell-based; conditions: 100 nM, 20 min, rat striatal slices, vs vehicle
Description: In addition, the absence of tyrosine hydroxylase (TH, a cytosolic protein found in DAT terminals) from the biotinylated surface fraction serves a control for the integrity of our slice preparation and specificity of the surface signal.

DAT [1] = assay: radiolabeled DA [3H-DA] uptake in striatal slices; format: cell-based; conditions: 100 nM for 10 min, 3H-DA 10 min, vs vehicle
Protocol: Slices were exposed to ^3H-DA for 10 min and then washed to remove excess DA at 4° C. to stop uptake. Slices were homogenized and ^3H-DA quantified by a scintillation counter.

DAT [2] = assay: chronoamperometry of AMPH-induced DA efflux in striatal slices; format: cell-based; conditions: pretreatment 100 nM for 20 min, AMPH 10 μM
Description: Chronoamperometry was used to evaluate AMPH-induced DA efflux in striatal slices.

Substance: exendin-4 [EX4]
- AMPH-induced locomotor activity (GLP-1 receptor; 30 μg/kg i.p. 90 min prior to AMPH 2.78 mg/Kg i.p.): significantly decreased
- basal locomotion (GLP-1 receptor; 30 μg/kg i.p., absence of AMPH): significantly decreased

Substance: Glucagon-like peptide-1 [GLP-1]
- surface expression of the Na+/K+ ATPase (Na+/K+ ATPase): did not affect
- DA uptake (3H-DA) (DAT [1]): significantly increased
- AMPH-induced increase in extracellular DA (DAT [2]): significantly potentiates
